Columns and labels:
zebrafish larvae = assay: Zebrafish larval toxicity (NOEC, lethal dose); format: in vivo; details: for Lethal dose / Highest concentration tested for anti-seizure activity: 7 dpf zebrafish larvae; for Lethal dose: up to 5 h treatment; for Highest concentration tested for anti-seizure activity: highest sub-lethal dose
PGAM5 = assay: Western blot, PGAM5 cleavage; format: cell-based, mouse; details: HT22, glutamate
Experimental: HT-22 cells were cultured and treated as described above for the qRT-PCR experiments. After 16 hrs, the media was collected and the cells harvested by trypsanization. After centrifugation, pelleted cells were washed with cold HBSS Ca^2+/Mg^2+ Free, followed by lysis with a low salt lysis buffer (50 mM Tris-HCl, pH 7.4, 150 mM NaCl, 10% glycerol, 0.5 Triton X-100, 1× protease and phosphatase inhibitor cocktail) for 30 min, followed by a 15-s sonication pulse at 30 W. For Western blot analysis, the cell lysates were denatured with LDS loading buffer (Invitrogen) and run on Nupage 4-12% Tris-glysine gradient gels (Invitrogen) after centrifugation. Phosphorylated Drp1 (Ser637) (Cell Signaling) and total Drp1 (C5) (Santa Cruz), PGAM5 (K16) (Santa Cruz Biotechnology), Actin (Sigma-Aldritch) and alpha-Tubulin (Santa Cruz Biotechnology) were assessed with primary antibody, followed by rabbit, mouse, or goat IgG-HRP secondary antibody. The blot was developed using Pierce Thermo Dura-ECL reagent (Thermo-Fisher) and visualized using an ImageQuant LAS 4000 (GE). Digital images of membranes were quantified by computer-assisted densitometry using Image J 1.42q (National Institutes of Health, MD).

HO-1 = assay: qRT-PCR of antioxidant response gene HO-1; format: cell-based, mouse; details: HT22, 10 mM glutamate 16 hrs, relative to glutamate only
Experimental: HT22 cells were seeded onto cell culture treated 6-well plates at 3.0×10^5 cells per well in 2 mL of medium and maintained at 37° C. in 5% CO2 overnight prior to the initiation of experimental treatments. Cells were subsequently treated with 1 mL of medium containing glutamate (monosodium glutamate, Sigma-Aldritch, 1 M stock concentration in media, to achieve a final concentration of 10 mM) plus inhibitors (stock in DMSO) and maintained at 37° C. in 5% CO2. After 16 hrs, the media was collected and the cells harvested by trypsanization. After centrifugation, pelleted cells were washed with cold Hanks' Balanced Salt Solution (HBSS Ca^2+/Mg^2+ Free; Invitrogen; KCl 5.33 mM, KH2PO4 0.441 mM, NaHCO3 4.17 mM, NaCl 137.93 mM, Na2HPO4 0.338 mM, D-Glucose 5.56 mM), qRT-PCR was used to detect HO-1, NQO-1, and PGAM5 mRNAs in the HT22 cells. […] Therefore β2-microglobulin was used as a reference gene (Barrionuevo and Burggren, 1999). HT22 cells were cultured as described for 16 hrs. Total RNAs were extracted using the RNEasy kit (Qiagen), and transcripts of interest were amplified by PCR using the 1-step Syber Green qRT-PCR kit (Quanta) and the following specific primers (Harvard PrimerBank; Integrated DNA Technologies): HO-1, 5′-[…]-3′ (SEQ ID NO:1) and 5′-[…]-3′ (SEQ ID NO:2); PGAM5, 5′-[…]-3′ (SEQ ID NO:3) and 5′-[…]-3′ (SEQ ID NO:4); NQO-1, 5′-[…]-3′ (SEQ ID NO:5) and 5′-[…]-3′ (SEQ ID NO:6); and β2-microglobulin, 5′-[…]-3′ (SEQ ID NO:7) and 5′-[…]-3′ (SEQ ID NO:8). Linearity of the primers was verified before use, and fold changes were calculated as previously described using the Livak method (Barrionuevo and Burggren, 1999).

| Compound | Lethal dose (zebrafish larvae) [mM] | Highest concentration tested for anti-seizure activity (zebrafish larvae) [mM] | increase in lower band (cleavage product) of PGAM5 (PGAM5; 125 nM) | HO-1 gene expression (HO-1) | highest NOEC (zebrafish larvae; zebrafish larvae) [µM] | increase in lower band (cleavage product) of PGAM5 (PGAM5; 500 nM) |
| --- | --- | --- | --- | --- | --- | --- |
| C#CCNC1=CC(=O)c2ccccc2C1=O [Compound 2h, 2-(prop-2-yn-1-ylamino)naphthalene-1,4-dione] | >0.02 | 0.02 | – | – | – | – |
| O=C1C=C(NCc2ccccc2)C(=O)c2ccccc21 [Compound 2j, 2-(benzylamino)naphthalene-1,4-dione] | 0.012 | 0.010 | completely attenuated | significantly decreased HO-1 expression | – | – |
| O=C1C=C(NCc2cccc(Cl)c2)C(=O)c2ccccc21 [Compound 2q, 2-((3-chlorobenzyl)amino)naphthalene-1,4-dione] | >0.02 | 0.02 | completely attenuated | significantly decreased HO-1 expression | – | – |
| CC1=CC(=O)c2ccccc2C1=O [VK3, menadione, reference compound] | 0.007 | 0.006 | – | – | 10 | – |
| menaquinones [VK2, reference compound] | – | – | – | significantly decreased HO-1 expression | – | completely attenuated |
